Source: PubChem BioAssay AID2305 (GlaxoSmithKline (GSK), 2010)

test system: P. falciparum 3D7 growth, pLDH absorbance; assay: blood-stage malaria parasite growth potency – strain 3D7, dose response (AID 2305)

| Structure (SMILES) | IC50 |
| --- | --- |
| CN1CCCN(Cc2cccc(-c3ccc(CNC(=O)c4cccc(Cl)c4)c(F)c3)c2)CC1 | 190 nM |
| CCC(CC)CN1C(=O)C(c2ccccc2)(c2ccccc2)N=C1N | 970 nM |
| Cc1cccc2[nH]c(-c3ccc(-c4ccc(CN5CCN(C6CCN(C)CC6)CC5)cc4)cc3)nc12 | 100 nM |
| Cc1cc(N2CCN(C(=O)OC(C)(C)C)CC2)ccc1N | 870 nM |
| Cc1ccccc1CNc1noc(-c2sccc2Br)n1 | 380 nM |
| CCc1ccc(-n2c(NC(=O)c3ccccc3)nc3ccc(S(=O)(=O)NC(C)C(C)C)cc32)cc1 (configuration not stated) | 930 nM |
| N#Cc1ccc(CN2CCC(Oc3ccc(NC(=O)c4ccco4)cc3Cl)C2)cc1 (configuration not stated) | 330 nM |
| O=c1cc(NCCCNCc2cccc(Oc3ccccc3)c2)[nH]c2ccccc12 | 950 nM |
| COc1ccc(CC(=O)NC2CCN(c3ccnc4cc(Cl)ccc34)C2)cc1 (configuration not stated) | 240 nM |
| O=C(Nc1ccc(Cl)cc1)Nc1cccc(-c2ccc(-c3nc4ccccc4[nH]3)cc2)c1 | 930 nM |
| CN(CCC1CCN(C(=O)/C=C/c2ccc(Cl)c(Cl)c2)CC1)C1CCC(c2c[nH]c3ccccc23)CC1 (configuration not stated) | 770 nM |
| CCCc1cc(NCC)nc(Nc2ccc(C)cc2)n1 | 890 nM |
| COCCNCc1cccc(-c2ccc(CN(C(=O)Nc3ccccc3)C3CCN(Cc4ccccc4)CC3)cc2)c1 | 770 nM |
| COc1ccccc1NC(=O)NC1CCN(CCCCCNC(=O)/C=C/c2ccc(Cl)c(Cl)c2)CC1 | 750 nM |
| NC1CCN(c2nc(NCCc3ccc(O)cc3)nc(NCc3ccccc3-c3ccccc3)n2)CC1 | 820 nM |
| O=C(Nc1cccc(-c2nn3ccccc3c2-c2ccnc(Nc3ccc(Cc4ccncc4)cc3)n2)c1)c1c(F)cccc1F | 300 nM |
| CC(C)CNCc1cccc(-c2ccc(CN(CCCN3CCN(C)CC3)C(=O)CCC3CCCC3)cc2)c1 | 880 nM |
| O=C(/C=C/c1c(Cl)cccc1Cl)NC1CCC(CN2[C@@H]3CC[C@H]2CC(c2c[nH]c4ccccc24)C3)CC1 (some centres not stated) | 840 nM |
| O=C(NC1CCC1)C1CCN(C(c2ccccc2)c2cc(F)cc(F)c2)CC1 (configuration not stated) | 800 nM |
| OCC1CCN(Cc2cccc(-c3cccc(-c4nc5ccc(C(F)(F)F)cc5[nH]4)c3)c2)CC1 | 510 nM |
| Cc1nc2nc(N)nc(N)c2c(C)c1Cc1ccc(O)cc1 | 240 nM |
| COc1cccc2cc(C(=O)N[C@@H](CC(C)C)C(=O)N[C@H](/C=N/N3C(=O)CN(Cc4ccccc4)C3=O)CCc3ccccc3)oc12 | 620 nM |
| Cc1ccc(O)cc1Nc1ccnc2cc(-c3csc(CNCCN4CCOCC4)n3)ccc12 | 880 nM |
| O=C(/C=C/c1ccc(Cl)c(Cl)c1)NCCCCCN1CCC(NC(=S)Nc2ccc(F)cc2F)CC1 | 810 nM |
| Cc1cc(NCC(c2ccccc2)c2ccccc2)nc(NCc2ccc(C(F)(F)F)cc2)n1 | 250 nM |

| Structure (SMILES) | IC50 |
| --- | --- |
| COc1ccc2nccc([C@@H](O)CN3CCC(NC(=O)c4ccc5nc(-n6cccc6)sc5c4)CC3)c2c1 | 1000 nM |
| O=C(Nc1ccc(F)cc1)NC1CCN(c2ccnc3cc(Cl)ccc23)CC1 | 410 nM |
| CC(C)NCc1cccc(-c2ccc(-c3nc4ccccc4[nH]3)cc2)c1 | 760 nM |
| CC(C)C[C@@H](/C=N/N1CCNC1=O)NC(=O)[C@H](CC(C)C)NC(=O)c1ccc(OCCN2CCOCC2)cc1 | 190 nM |
| CN1CCC(NC(=O)c2cc(Oc3ccc4c(c3)CCN4C(=O)Nc3cccc(C(F)(F)F)c3)ccn2)CC1 | 930 nM |
| Cc1cc(N2CCCC2=O)ccc1-c1ccc(C(=O)N2CCC(Oc3cccc(Cl)c3)CC2)cc1 | 430 nM |
| O=C(CCOc1ccccc1)NCC1CCCO1 (configuration not stated) | 1000 nM |
| CN1CCc2ccc(NC(=O)Nc3ccc(Cl)c(Cl)c3)cc2C1 | 720 nM |
| CC(C)NCc1ccc(-c2cccc(-c3nc4ccccc4[nH]3)c2)cc1 | 230 nM |
| C/C=C1/CN2CC[C@H]1C[C@H]2[C@H](O)c1ccnc2ccc(OC)cc12 | 200 nM |
| O=C(Nc1ccc(CC(=O)N2CCc3cc(Cl)c(N4CCN(C/C=C/c5ccccc5)CC4)cc32)cc1)Nc1cccc([N+](=O)[O-])c1 | 760 nM |
| Cc1nc(-c2nc(NCc3ccc4c(c3)OCO4)ncc2-c2ccsc2)sc1C | 100 nM |
| COc1cccc(OC)c1OCCCOc1c(C)nc(N)nc1N | 460 nM |
| COc1ccc(C(C(=O)NC2CCN(C[C@H](O)c3ccnc4ccc(OC)cc34)CC2)N2CCc3ccccc3C2)cc1 (some centres not stated) | 700 nM |
| Cc1cccc(-c2nc3cc(NC(=O)c4ccc([N+](=O)[O-])o4)ccc3o2)c1 | 880 nM |
| Cc1cc(N2CCOCC2)nc(Nc2ccc(NC(=O)c3cccc4ccccc34)cc2)n1 | 1300 nM |
| CN1CCN(CCCN(Cc2csc(-c3ccc(CNCc4ccccc4)cc3)n2)S(=O)(=O)c2ccc(F)cc2)CC1 | 860 nM |
| CCCC(CNCc1cccc(OC(F)(F)C(F)F)c1)CNc1cc(=O)c2ccccc2[nH]1 (configuration not stated) | 590 nM |
| O=C(Cn1cc(C=C2SC(=NC3CCCC3)N(C3CCCC3)C2=O)c2ccccc21)N1CCCC1 | 300 nM |
| CC[C@H](C)CNC(=O)c1cncc(-c2ccc(CNCCOc3ccccc3)cc2)c1 | 1110 nM |
| NC1CCN(CCNCc2cccc(-c3ccc(-c4nc5ccc(C(F)(F)F)cc5[nH]4)cc3)c2)C1 (configuration not stated) | 890 nM |
| CC(=O)Nc1ccc(CN2CCC(NC(=O)c3ccc(-c4cccc(OC(C)C)c4)s3)CC2)cc1 | 1460 nM |
| CN1CCCN(c2ccnc3cc4c(cc23)N(C(=O)c2ccccc2Cl)CC4)CC1 | 1180 nM |
| CC(=O)c1ccc(NC(=O)Nc2ccc(N(C)c3ccnc(NC4CC4)n3)cc2)cc1 | 800 nM |
| Cc1cccc2[nH]c(-c3cccc(-c4ccc(NC(=O)c5ccc(=O)[nH]n5)cc4)c3)nc12 | 860 nM |

| Structure (SMILES) | IC50 |
| --- | --- |
| COc1cc(CNCCCCCCNCc2cc(OC)cc3ccccc23)c2ccccc2c1 | 590 nM |
| COc1ccc2nccc(N3CCC(SCCNCc4ccc5c(n4)NC(=O)CS5)C3)c2n1 (configuration not stated) | 250 nM |
| CCCc1ccccc1OCC(O)CN(C1CCCC1)C1CCCC1 (configuration not stated) | 470 nM |
| COc1ccc(CNC(=O)c2cnc3c(O)cccc3c2Nc2cccc(NC(=O)c3ccc(Cl)c([N+](=O)[O-])c3)c2)cc1 | 950 nM |
| O=C(Nc1ccc2ccccc2c1)N(CCCn1ccnc1)Cc1csc(-c2ccc(CNCc3ccccc3)cc2)n1 | 740 nM |
| FC(F)(F)c1ccccc1OCc1cc(-c2ccncc2)c(COc2ccccc2C(F)(F)F)cc1C1=CCNCC1 | 890 nM |
| CC[C@@H]([C@@H](CC(C)C)C(=O)N[C@@H](CCCCNC(=O)OCc1ccccc1)C(=O)Nc1ccccn1)N(O)C=O | 110 nM |
| Cc1ccc(CCOCCCCCNCC(O)c2cc(Cl)c(N)c(Cl)c2)cc1 (configuration not stated) | 950 nM |
| COc1cc(NC(=O)NC(CCN2CCC3(CCc4ccccc43)CC2)c2ccc(Cl)c(Cl)c2)cc(OC)c1OC (configuration not stated) | 680 nM |
| O=[N+]([O-])c1cccc(CNCC2CCN(Cc3ccc4ccccc4c3)CC2)c1 | 880 nM |
| CC(C)NCc1ccc(-c2ccc(NS(=O)(=O)c3cccc4cccnc34)cc2)cc1 | 810 nM |
| Cc1cc(N2Cc3ccccc3C2)nc(Nc2ccc(S(=O)(=O)N3CCOCC3)cc2)n1 | 1110 nM |
| CC1CCN(Cc2c(O)ccc3c(=O)c(-c4nc5ccccc5s4)c(N)oc23)CC1 | 160 nM |
| CN(C)c1ccc2c(c1)Sc1cc(N(C)C)ccc1N2C(=O)c1cccc(C(=O)O)c1 | 180 nM |
| Cc1ccccc1Nc1nc(Nc2ccccc2)c2ccccc2n1 | 1000 nM |
| CCOc1c(OC)ccc2c1CCN(CCN1CCC(NC(=O)c3ccc(-c4cccc(C(F)(F)F)c4C(F)(F)F)cc3)CC1)C2 | 730 nM |
| c1ccc(-c2[nH]ncc2Nc2ccnc3ccccc23)nc1 | 820 nM |
| COc1ccc(-c2ccc(NC(=O)c3cccc(Cl)c3)c(F)c2)cc1CNC(C)C | 890 nM |
| Cc1ccc(Oc2ccc(NC(=O)CNc3ccccc3N3CCCC3=O)cc2)cc1 | 370 nM |
| Cc1cc(NC(=O)NCCN2CCC(NC(=O)c3ccc(F)cc3)CC2)c2ccccc2n1 | 330 nM |
| Oc1cccc2ccc(Nc3ccccn3)nc12 | 750 nM |
| COc1ccc(CN2CCCC(C(=O)c3ccc(C(F)(F)F)cc3)C2)c(O)c1 (configuration not stated) | 850 nM |
| CN1CCN(CC(O)CNC(=O)Nc2ccc(Cl)cc2)CC1 (configuration not stated) | 230 nM |
| Oc1cc(Nc2ccnc3cc(-c4cccc(CN5CCCCC5)c4)ccc23)c(F)cc1Cl | 100 nM |
| O=C(CCCc1ccccc1)Nc1cccc(N2CCC(N3CCN(c4ccccc4O)CC3)CC2)c1 | 790 nM |

| Structure (SMILES) | IC50 |
| --- | --- |
| CC(C)Cn1c(Sc2ccc(C#N)c([N+](=O)[O-])c2)nnc1-c1ccccc1Cl | 900 nM |
| CC(NC(=O)c1ccc(O)c(-c2ccc(Cl)c(Cl)c2)c1)C(=O)NCCN1CCOCC1 (configuration not stated) | 960 nM |
| Oc1ccc(CN2Cc3ccccc3OC3(CCN(Cc4c[nH]c5cnccc45)CC3)C2)cc1 | 1170 nM |
| CC(C)CCN(Cc1cncn1Cc1ccccc1F)C(=O)c1cncc(-c2ccccc2)c1 | 790 nM |
| Cc1cc(CNCCCCCNCc2cccc([N+](=O)[O-])c2)ccc1O | 780 nM |
| CC(C)NCc1cc(Nc2ccnc3cc(Cl)ccc23)ccc1O | 20 nM |
| Cc1nc2nc(N)nc(N)c2c(C)c1Cc1cccc(F)c1 | 340 nM |
| CCOc1cc(C=Cc2nc3ccccc3c(=O)[nH]2)cc(Cl)c1O | 1180 nM |
| CC(C)(C)c1cc(NC(=O)c2ccc(Cl)c([N+](=O)[O-])c2)cc(C(C)(C)C)c1 | 1030 nM |
| CCn1c(-c2nonc2N)nc2c(-c3cccc(NC(=O)Nc4cccc(C(F)(F)F)c4)c3)ncc(OCCCN)c21 | 970 nM |
| COc1ccc(/C=C/C(=O)N2CCc3cc4nccc(N5CCN6CCC[C@H]6C5)c4cc32)cc1 | 640 nM |
| N#Cc1ccc2nc(-c3ccccc3)[nH]c2c1 | 700 nM |
| Cn1nc(-c2ccc(NC(=O)Nc3cc(C(F)(F)F)ccc3F)cc2)c2cnc(NCCCCN3CCCC3)nc21 | 530 nM |
| CC(C)N1CCC(N(Cc2ccc(-c3ccc(C(F)(F)F)cc3)cc2)C(=O)Cn2c(SCc3cccc(F)c3F)nc(=O)c3ccccc32)CC1 | 1050 nM |
| COC(=O)c1cc(/C(C)=N/Nc2nc3ccccc3[nH]2)ccc1O | 680 nM |
| COc1ccc(Nc2ccnc3cc(-c4ccccn4)ccc23)cc1OC | 30 nM |
| CC(Cc1ccc(C(C)(C)C)cc1)NCC(O)c1ccccc1 (configuration not stated) | 1810 nM |
| c1ccc(CNc2nc(NCCc3cnc[nH]3)nc(NCc3cccc4ccccc34)n2)cc1 | 1110 nM |
| O=C(Nc1ccc(F)c(C(F)(F)F)c1)NC1CCN(CCCCCNC(=O)[C@@H]2C[C@H]2c2ccc(Cl)c(Cl)c2)CC1 | 660 nM |
| CCN(CC)CCN1C(=O)c2oc3ccc(Cl)cc3c(=O)c2C1c1ccc(SC)cc1 (configuration not stated) | 1060 nM |
| Cc1nc(C)c(-c2ccc(Oc3ccc(OC(F)(F)F)cc3)cc2)c(OC(=O)c2ccccc2)c1Cl | 180 nM |
| S=C(Nc1cccc(Cl)c1)NC1CCN(c2ccnc3cc(Cl)ccc23)C1 (configuration not stated) | 150 nM |
